Where two headings read alike, the source gives them in different places.
Tests used:
[1] = test system: capsid-associated HBV DNA; assay: Capsid-associated HBV DNA and DNA replication intermediates in AML12HBV10 cells; format: cell-based, Hepatitis B virus (HBV); details: 2 days, FIG. 1 panels D and E
Protocol: (§1) FIG. 1. Antiviral mechanism of the compounds of the present invention. AML12HBV10 cells were left untreated (NT) or treated with the indicated concentrations of the compounds of the disclosure Compound 6 and Compound 19, respectively, for 2 days. Bay-4109 (3 µM) or AT-61 (25 µM) served as positive controls. (A) Intracellular viral RNA was determined by Northern blot hybridization. Ribosomal RNA served as a loading control. (B) The total amounts of nucleocapsids were determined by a particle gel assay. (C) Encapsidated pgRNA were extracted and measured by Northern blot. (D) Nucleocapsid-associated HBV DNA was quantified by alkaline-treatment of nucleocapsids on the membrane following the particle gel assay and hybridized with a HBV-specific riboprobe. (E) HBV DNA replication intermediates were extracted and determined by Southern blot hybridizations.
(§2) Procedures of viral capsids and nucleocapsid-associated DNA analysis: AML12HB10 cells were lysed by addition of 300 μl buffer containing 10 mM Tris-HCl (pH7.6), 100 mM NaCl, 1 mM EDTA and 0.1% NP-40 to each well of 12-well plate. Cell debries were removed by centrifugation at 5000 g for 10 minutes. Ten microliters of the clarified cell lysates were fractionated by electrophoresis through nondenaturing 1% agarose gels and transferred to a nitrocellulose filter by blotting with TNE buffer (10 mM Tris-HCl, pH7.6; 150 mM NaCl and 1 mM EDTA). HBV capsids were detected by probing the membrane with an antibody against HBV core protein (DAKO). […] To detect capsid associated HBV DNA, the membrane were treated with buffer containing 0.5N NaOH and 1.5 M NaCl for 5 minutes and followed by neutralization with buffer containing 1 M TRIS-HCl and 1.5M NaCl for 5 minutes. The viral DNA was detected by hybridization with a α-^32P-UTP (800 Ci/mmol, Perkin Elmer) labeled minus strand specific full-length HBV riboprobe (Xu et al.).
To analyze the HBV DNA replication intermediates, cells were lysed by adding into each well of the 12-well plates 0.5 ml of lysis buffer containing 10 mM Tris-HCl (pH 8.0), 1 mM EDTA, 1% NP40 and 2% sucrose and incubating at 37° C. for 10 minutes. Cell debris and nuclei were removed by centrifugation and the supernatant was mixed with 130 μl of 35% polyethylene glycol (PEG) 8000 containing 1.5 M NaCl. After 1 hour incubation in ice, viral nucleocapsids were pelleted by centrifugation at 6,000×g for 5 minutes at 4° C., followed by 1 hour digestion at 37° C. in 400 μl of digestion buffer containing 0.5 mg/ml pronase (Calbiochem), 0.5% SDS, 150 mM NaCl, 25 mM Tris-HCl (pH 8.0) and 10 mM EDTA. The digestion mixture was extracted twice with phenol and DNA was precipitated with ethanol, dissolved in TE buffer (10 mM Tris-HCl, pH 8.0; 0.1 mM EDTA). […]

HBV capsids = assay: Particle gel assay of nucleocapsids in AML12HBV10 cells; format: cell-based, Hepatitis B virus (HBV); details: 2 days, FIG. 1 panel B
Protocol: as §1, §2

encapsidated pgRNA = assay: Encapsidated pgRNA by Northern blot in AML12HBV10 cells; format: cell-based, Hepatitis B virus (HBV); details: 2 days, FIG. 1 panel C
Protocol: as §1
Determination of encapsidated pgRNA: AML12HBV10 cells were lysed by addition of 600 μl of lysis buffer (50 mM Tris-HCl [pH 7.5], 1 mM EDTA, 150 mM NaCl, 1% NP-40) into each well of 12-well plates. The nuclei were removed by centrifugation at 5,000 g for 10 minutes. One-half of the sample was mixed with 6 U of micrococcal nuclease (Pharmacia) and 15 μl of 100 mM CaCl2 and incubated for 15 minutes at 37° C. to digest free nucleic acids. The reaction was stopped with 6 μl of 0.5 M EDTA, and capsids were precipitated by adding 125 μl of 35% polyethylene glycol 8000 in 1.75 M NaCl to the reaction and incubating in ice for 30 minutes, followed by centrifugation at 6,000 g for 10 minutes at 4° C. Pellets were re-suspended in 50 μl of TNE buffer (10 mM Tris-HCl [pH 8], 100 mM NaCl, 1 mM EDTA). pgRNA was extracted by the addition of 1 ml of Trizol reagent. The encapsidated pgRNA were electrophoresed through a 2.2 M formaldehyde-1% agarose gel, transferred to a nylon membrane, and immobilized by UV cross-linking (Stratagene). Hybridization was performed with an alpha-^32P-UTP labeled riboprobe specific for plus strand of HBV genome.

[2] = test system: HBV replication in AML12HBV10 cells; assay: Antiviral efficacy in AML12HBV10 cells (HBV DNA dot-blot hybridization); format: cell-based, Hepatitis B virus (HBV)
Protocol: The HBV replication inhibitors of the present invention are capable of treating and preventing diseases associated with HBV infection.
The antiviral efficacy of the compounds of the disclosure, as presented in Table 1, were determined in AML12HBV10 cells. AML12HBV10 is an immortalized murine hepatocyte (AML12)-derived stable cell line that supports robust HBV replication in a tetracycline inducible manner (Xu et al.). The cells were seeded into 96 well plates at a density of 2×10^4 cells per well and cultured in DMEM/F12 media with 10% fetal bovine serum in the absence of tetracycline to allow pgRNA transcription and HBV DNA replication. One day after seeding, cells were left untreated or treated with a serial dilution of testing compounds, ranging from 50 μM to 0.39 μM, for 48 hours. Cells were then lysed by adding into each well of 100 μl lysis buffer containing 10 mM Tris-HCl (pH 7.6), 1 mM EDTA, 100 mM NaCl and 1% NP-40 and incubated at 37° C. for 30 minutes. Half amount (50 μl) of cell lysate from each well was combined with equal volume of denaturing solution containing 0.5N NaOH and 1.5M NaCl. After 5 minute incubation, 100 µl of neutralization solution (1M Tris-HCl, pH 7.4, 1.5M NaCl) was added into each well. The denatured cell lysates (totally 200 μl) were applied onto Nylon membrane using 96-well dot-blot manifold (Biorad). HBV DNA in the cell lysates were determined by dot-blot hybridization with alpha-^32P-UTP-labelled riboprobe specific for HBV minus strand DNA. The antiviral efficacy of a compound of the disclosure was expressed as the concentration that reduces the amount of HBV DNA by 50% (EC50).

AML12HBV10 cells = assay: Cytotoxicity in AML12HBV10 cells (MTT assay); format: cell-based, murine; details: concentration that reduces viability by 50%, 48 hours, serial dilution 50 μM to 0.39 μM
Protocol: (§3) Determination of cytotoxicity of compounds of the disclosure in AML12HBV10 cells: To determine the cytotoxicity of the compounds, AML12HBV10 cells were seeded into 96-well plates at a density of 2×10^4 cells per well and cultured in DMEM/F12 media with 10% fetal bovine serum in the absence of tetracycline to allow pgRNA transcription and HBV DNA replication. One day after seeding, cells were left untreated or treated with a serial dilution of testing compounds, ranging from 50 μM to 0.39 μM, for 48 hours. The cell viability was measured by a MTT assay, following procedure provided by the manufacturer (Promega). The cytotoxicity of a compound was expressed as the concentration of compound that reduces the viability of the cells by 50% (CC50).

[3] = test system: HBV replication in HepDES19 cells; assay: Antiviral activity in HepDES19 cells (core-associated HBV DNA, Southern blot); format: cell-based, Hepatitis B virus (HBV); details: concentration that reduces core-associated HBV DNA by 50%; 6 days; serial dilution 10 μM to 0.018 μM
Text: Determination of antiviral activity of compounds of the disclosure, as presented in Table 1, in human hepatoma-derived cell lines: To further confirm the antiviral activity of the compounds of the disclosure against HBV in human hepatocyte-derived cells, HepDES19 cells, a human hepatoma cell line supporting HBV replication in a tetracycline inducible manner (Guo et al., 2007), seeded into 12-well plates at a density of 5×10^5 cells per well and cultured in DMEM/F12 media with 10% fetal bovine serum and 1 μg/ml tetracycline. Two days after seeding, the cells were mock-treated or treated with a serial dilution of compounds of the disclosure, ranging from 10 μM to 0.018 μM, for 6 days in the absence of tetracycline. Upon the completion of treatment, cells were lysed by adding into each well of the 12-well plates 0.5 ml of lysis buffer containing 10 mM Tris-HCl (pH 8.0), 1 mM EDTA, 1% NP40 and 2% sucrose and incubating at 37° C. for 10 minutes. Cell debris and nuclei were removed by centrifugation and the supernatant was mixed with 130 μl of 35% polyethylene glycol (PEG) 8000 containing 1.5 M NaCl. After 1 hour incubation in ice, viral nucleocapsids were pelleted by centrifugation at 6,000×g for 5 min at 4° C., followed by 1 hour digestion at 37° C. in 400 μl of digestion buffer containing 0.5 mg/ml pronase (Calbiochem), 0.5% SDS, 150 mM NaCl, 25 mM Tris-HCl (pH 8.0) and 10 mM EDTA. The digestion mixture was extracted twice with phenol and DNA was precipitated with ethanol, dissolved in TE buffer (10 mM Tris-HCl, pH 8.0; 0.1 mM EDTA). One half of the DNA sample from each well was resolved by electrophoresis into a 1.5% agarose gel. The gel was then subjected to denaturation in a solution containing 0.5 M NaOH and 1.5 M NaCl, followed by neutralization in a buffer containing 1 M Tris-HCl (pH7.4) and 1.5 M NaCl. DNA was then blotted onto Hybond-XL membrane (GE Health care) in 20×SSC buffer. The amounts of cytoplasmic HBV core-associated HBV DNA were determined by Southern blot hybridization and the antiviral efficacy of a compound was expressed as its concentration that reduce the amount of HBV DNA by 50% (EC50) or 90% (EC90).

[4] = Cytotoxicity in AML12HBV10 cells (MTT assay); format: cell-based, murine; details: mouse, concentration that reduces viability by 50%, serial dilution 50 μM to 0.39 μM
Protocol: as §3

HBV mRNA = assay: Intracellular viral RNA by Northern blot in AML12HBV10 cells; format: cell-based, Hepatitis B virus (HBV); details: 2 days, FIG. 1 panel A
Protocol: as §1
Procedure for analysis of HBV mRNA: Upon the completion of treatment, total cellular RNA was extracted with TRIzol reagents (Invitrogen). Five micrograms of total RNA was resolved in 1.5% agarose gel containing 2.2 M formadelhyde and transferred onto Hybond-XL membrane in 20×SSC buffer. The amounts of HBV mRNA were determined by Northern blot hybridization with an alpha-^32P-UTP labeled riboprobe specific for plus strand of HBV genome.

SMILES: O=C(N/C(C(=O)N1CCCCC1)=C(/Cl)c1ccccc1)c1ccccc1 [AT-61, reference compound]
- capsid-associated HBV DNA / DNA synthesis [1]: dose-dependently reduced
- capsid formation (HBV capsids): did not affect
- level of encapsidated pgRNA (encapsidated pgRNA): dose-dependently reduced

SMILES: COC(=O)C1=C(C)NC(c2ncc(F)cc2F)=N[C@H]1c1ccc(F)cc1Cl [Bay41-4109, reference compound]
- capsid-associated HBV DNA / DNA synthesis [1]: completely abolished
- capsid formation (HBV capsids): completely abolished
- level of encapsidated pgRNA (encapsidated pgRNA): completely abolished

SMILES: O=C(Nc1ccccc1)c1scc2c1OCCO2 [Entry 10]
- EC50 ([2]; read-out: AML12HBV10 EC50, concentration that reduces the amount of HBV DNA by 50%, 48 hours, serial dilution 50 μM to 0.39 μM): 4.48 µM
- CC50 (AML12HBV10 cells): > 50 µM
- EC50 [3]: 8.45 µM

SMILES: O=C(Nc1cccc(Cl)c1)c1cccc2c1OCCO2 [Entry 19]
- EC50 ([2]; Hepatitis B virus, AML12HBV10, 48 h, read-out: AML12HBV10 EC50, concentration that reduces the amount of HBV DNA by 50%, serial dilution 50 μM to 0.39 μM): < 0.4 µM
- CC50 at 48 h [4]: > 50 µM
- capsid-associated HBV DNA / DNA synthesis [1]: reduced encapsidated pgRNA and capsid-associated HBV DNA in a dose-dependent manner
- capsid formation (HBV capsids): did not significantly affect
- level of encapsidated pgRNA (encapsidated pgRNA): dose-dependently reduced
- amount of viral mRNA (HBV mRNA): did not affect
